One experiment has as its target T1, serotonin 5-HT3 receptor (Mus musculus, UniProt P23979).
T1 construct: the 5-HT3 receptor which was endogenously expressed in the human cell line N1E-115; endogenous in cells; host or cells: N1E-115 neuroblastoma cells (membrane suspensions)
T1 sequence (P23979 24-483 isoform P23979-2 limits assumed): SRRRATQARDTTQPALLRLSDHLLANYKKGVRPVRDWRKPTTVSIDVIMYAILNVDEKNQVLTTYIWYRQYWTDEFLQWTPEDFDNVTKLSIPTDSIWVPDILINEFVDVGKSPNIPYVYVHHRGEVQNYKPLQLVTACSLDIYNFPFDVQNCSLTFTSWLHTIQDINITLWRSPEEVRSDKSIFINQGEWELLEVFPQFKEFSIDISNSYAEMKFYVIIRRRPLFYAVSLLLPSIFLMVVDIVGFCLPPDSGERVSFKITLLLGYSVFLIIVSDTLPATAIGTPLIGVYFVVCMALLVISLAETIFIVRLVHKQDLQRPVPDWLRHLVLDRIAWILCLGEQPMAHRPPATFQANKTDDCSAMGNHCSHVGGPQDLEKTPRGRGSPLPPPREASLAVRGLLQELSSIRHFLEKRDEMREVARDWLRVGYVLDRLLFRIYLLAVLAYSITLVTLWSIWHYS
Kind of experiment: Radioligand binding assay with [3H]-GR-65630 on membranes of cell line N1E-115. Details: species or system human. Particulars: for Ki: competition with [^3H]-GR-65630 (0.35 nM), N1E-115 membranes, 20 mM HEPES pH 7.4, 150 mM NaCl, 25°C, 60 min, Cheng and Prusoff, read-out: Kl. As to the method:
1. Affinity of 4-hydroxy derivatives of 5,6,9,10-tetrahydro-10-[(2-methyl-1H-imidazol-1-yl)methyl]-4H pyrido-[3,2,1-jk]-carbazol-11(8H)-one of formulas Ib - le for the human serotonin 5-HT3 receptor
In this test method, the ability of the 4-hydroxy derivatives of 5,6,9,10-tetrahydro-10-[(2-methyl-1H-imidazol-1-yl)methyl]-4H-pyrido-[3,2,1-jk]-carbazol-11(8H)-one of formulas Ib - le was assessed, for binding to the 5-HT3 receptor which was endogenously expressed in the human cell line N1E-115 and using tritiated GR-65630 as a radioligand.
The binding assays were carried out using the method of Hoyer and Neijt (see Hoyer, D., Neijt H.C., Mol. Pharmacol. 33, (1988) 303-309). Tritiated GR-65630 was used as radioligand and membrane suspensions, prepared in a known manner from the human neuroblastoma cell line N1E-115. Compounds have been tested for binding in various concentrations to compete with [^3H]-GR-65630 (0.35 nM final concentration) in 20 mM HEPES pH 7.4, containing 150 mM NaCl at 25°C for 60 min. Thereafter, the membranes were filtrated over glass fiber filters and bound radioactivity was counted by liquid scintillation counting. Each concentration was tested in triplicate, nonspecific binding was assessed by incubation with the reference compound MDL-72222 (1 µM).
Plotting the amount of bound radioactivity against the concentration of the competing compound allowed estimation of an IC50 value, i.e. that concentration at which 50% of the control radioligand binding remains. […]

The next experiment has as its target T2, 5-HT3 receptor (Cavia porcellus, UniProt O70212).
T2 construct: lleal segments were isolated and mounted in an organ bath; from tissue; host or cells: isolated guinea-pig ileal segments (female, Pirbright White)
T2 sequence (O70212 20-490): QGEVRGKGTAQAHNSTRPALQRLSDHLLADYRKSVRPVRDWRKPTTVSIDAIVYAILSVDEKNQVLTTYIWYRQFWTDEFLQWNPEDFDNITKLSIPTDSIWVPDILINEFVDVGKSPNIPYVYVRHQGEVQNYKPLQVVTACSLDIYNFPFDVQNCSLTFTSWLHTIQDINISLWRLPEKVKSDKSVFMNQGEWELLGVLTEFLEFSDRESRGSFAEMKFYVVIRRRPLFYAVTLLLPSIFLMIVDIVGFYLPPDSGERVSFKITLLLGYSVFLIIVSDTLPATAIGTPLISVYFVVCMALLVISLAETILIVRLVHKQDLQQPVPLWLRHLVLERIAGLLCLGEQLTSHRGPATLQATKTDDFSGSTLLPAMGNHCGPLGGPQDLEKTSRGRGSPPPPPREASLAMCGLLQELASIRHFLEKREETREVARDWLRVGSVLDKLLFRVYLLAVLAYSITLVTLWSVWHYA
Description: 2-methyl-5-HT induced contractions in isolated guinea-pig ileal preparations (5-HT3 receptor antagonism, Schild plot). Details: species or system guinea pigs. Particulars: for effect on concentration response curve for 2-methyl-5-HT: bath application; for effect on concentration response curve for 2-methyl-5-HT / Kb: guinea-pig ileum; for Kb: agonist 2-methyl-5-HT 0.32 - 100 µM, bath concentrations 0.1 and 1 µM (Ib), 1 and 3 µM (Ic), 5-6 preparations, read-out: pA2 (converted). The source says:
2. Effect of mammalian cilansetron 4-hydroxymetabolites from dog's urine of formulas Ib and Ic on 2-methyl-5-HT induced contractions in ileal preparations isolated from guinea pigs (5-HT3 receptor antagonism)
In this test method, the antagonistic potency of the mammalian cilansetron 4-hydroxymetabolites from dog's urine of formulas Ib and Ic was investigated by determining the shift of the concentration-response curve for the specific 5-HT3 receptor agonist 2-methyl-5-HT in preparations from the guinea-pig ileum.
Guinea-pigs (female, Pirbright White, about 300 g) were killed by a blow on the head and bled from the carotid arteries. lleal segments were isolated and mounted in an organ bath containing a salt solution continuously gassed with carbogen and kept at 37 °C. The composition of the solution in mM was 136.9 NaCl, 2.7 KCI, 1.77 CaCl2, 0.8 MgCl2, 0.6 NaH2PO4, 11.9 NaHCO3, and 5 glucose. The preparations were preloaded with 10 mN and allowed to equilibrate for 90 - 120 minutes (= min.). The concentration response curves for 2-methyl-5-HT (0.32 - 100 µM, by company Sigma) were constructed non-cumulatively to avoid desensitization. The measurement was made at the point of maximal contraction and the agonist was washed out as soon as peak response was reached. A first 2-methyl-5-HT curve was followed by another concentration response curve in the presence of one concentration of the antagonist. The response to the highest concentration of 2-methyl-5-HT obtained in the first concentration response curve was set to 100 %. For each compound at least two concentrations of the antagonist were tested in different sets. Data from 5-6 preparations were used for each concentration response curve. Schild plots were calculated and the pA2 value was determined. The pA2-value is the negative logarithm of the molar concentration of the antagonist which causes a rightward shift of the concentration response curve for the agonist by a factor of 2. The higher the pA2-value is, the higher is the potency of a compound.
All test compounds were initially dissolved in dimethylsulfoxide (= DMSO) at concentrations of 10^-2 mol/I and were further diluted with water. The final bath concentrations for the different compounds used were 0.1 and 1 µM for compound of formula Ib and 1 and 3 µM for compound of formula Ic. […]
In this test method, the 5-HT3 agonist 2-methyl-5-HT evoked dose-dependent contractions of the guinea-pig ileum with a pD2-value of 5.2. The pD2-value is the negative logarithm of the molar […].

The values that follow come from patent publication EP1424337A1, “4-hydroxy derivatives of 5,6,9,10-tetrahydro-10-((2-methyl-1h-imidazol-1-yl)methyl)-4h-pyrido-(3,2,1-jk)-carbazol-11(8h)-one” (Solvay Pharmaceuticals GmbH, priority 2002, dated 2004).

Turning to `Cc1nccn1C[C@@H]1CCc2c(c3cccc4c3n2CC[C@H]4O)C1=O` [le], the Ki on serotonin 5-HT3 receptor came to 0.038 µM.
In the case of `Cc1[nH]c2ccc(O)cc2c1CCN` [2-methyl-5-HT, reference compound], the EC50 on 5-HT3 receptor (agonist-evoked dose-dependent contractions of the guinea-pig ileum, read-out: pD2-value (converted)) is 6.31 µM.
`Cc1nccn1C[C@H]1CCc2c(c3cccc4c3n2CC[C@@H]4O)C1=O` [Ib]: the Ki on serotonin 5-HT3 receptor came out at 0.003 µM. On 5-HT3 receptor, the “effect on concentration response curve for 2-methyl-5-HT” value is “dose-dependent shift of the concentration response curve to the right” and the Kb is 0.186 µM.
In the case of `Cc1nccn1C[C@H]1CCc2c(c3cccc4c3n2CC[C@H]4O)C1=O` [Ic], at serotonin 5-HT3 receptor, the Ki stood at 0.01 µM. Moreover, on 5-HT3 receptor, the “effect on concentration response curve for 2-methyl-5-HT” value is “dose-dependent shift of the concentration response curve to the right” and the Kb is 0.355 µM.
With `Cc1[nH]cnc1CCC(=O)c1cn(C)c2ccccc12` [[^3H]-GR-65630, reference compound], on serotonin 5-HT3 receptor (radioligand, established separately, read-out: Kd, the affinity constant for [^3H]-GR-65630), the equilibrium dissociation constant (Kd) (in general, the equilibrium constant for the complex coming apart) is 0.00033 µM.
With `Cc1nccn1C[C@@H]1CCc2c(c3cccc4c3n2CC[C@@H]4O)C1=O` [Id], at serotonin 5-HT3 receptor, the Ki came out at 0.0088 µM.
